Data taken from paper PMC10895668, “Lead Optimization of the 5-Phenylpyrazolopyrimidinone NPD-2975 toward Compounds with Improved Antitrypanosomal Efficacy” (Journal of Medicinal Chemistry, 2024).
Where two headings read alike, the source gives them in different places.

Key:
Leishmania infantum = experiment: Antiparasitic assay, L. infantum; format: cell-based; conditions: mean ± SD, n ≥ 2, read-out: pIC50 L. infantum (converted)
Description: First, they were tested in vitro against the protozoan species Trypanosoma cruzi and Leishmania infantum and the clinically relevant T. b. rhodesiense.
The antiparasitic assays were carried out exactly as described in Blaazer et al.([39]) Metabolic stability, pharmacokinetics, acute mouse infection model results were collected as described previously.[21] All animal experiments were conducted in compliance with institutional guidelines and following approval by the Ethical Committee of the University of Antwerp, Belgium [UA-ECD 2014–96]. Female Swiss mice (15–20 g), were purchased from Janvier (Le Genest Saint Isle, France). […] Animals were treated PO b.i.d. for 5 days at 25 and 50 mg/kg 31c. For the SL-RNA qPCR experiments blood was collected sublingually and subjected to erythrocyte lysis before extracting RNA with the QIAamp RNA Blood Mini kit (Qiagen). […] Small pieces of fat, brain, and spleen tissue were excised and immediately transferred to RNA later (Qiagen) and incubated overnight at 4 °C. RNA extraction was performed as instructed in the RNeasy Mini Plus Kit manual (Qiagen). The one-step SensiFAST SYBR Hi-Rox PCR kit (Bioline USA Inc., via Gentaur Belgium BVBA, Kampenhout, Belgium) was used for the PCR with the following forward and reverse primers, respectively 5′-[…]-3′ and 5′-[…]-3′. […]

[1] = test system: peritoneal mouse macrophages (PMM); experiment: Cytotoxicity on peritoneal mouse macrophages; format: cell-based; conditions: Macrophage, n ≥ 2
T. b. brucei = conditions: for survival: n = 3
Description: The antiparasitic assays were carried out exactly as described in Blaazer et al.([39]) Metabolic stability, pharmacokinetics, acute mouse infection model results were collected as described previously.[21] All animal experiments were conducted in compliance with institutional guidelines and following approval by the Ethical Committee of the University of Antwerp, Belgium [UA-ECD 2014–96]. Female Swiss mice (15–20 g), were purchased from Janvier (Le Genest Saint Isle, France). […] Animals were treated PO b.i.d. for 5 days at 25 and 50 mg/kg 31c. For the SL-RNA qPCR experiments blood was collected sublingually and subjected to erythrocyte lysis before extracting RNA with the QIAamp RNA Blood Mini kit (Qiagen). […] Small pieces of fat, brain, and spleen tissue were excised and immediately transferred to RNA later (Qiagen) and incubated overnight at 4 °C. RNA extraction was performed as instructed in the RNeasy Mini Plus Kit manual (Qiagen). The one-step SensiFAST SYBR Hi-Rox PCR kit (Bioline USA Inc., via Gentaur Belgium BVBA, Kampenhout, Belgium) was used for the PCR with the following forward and reverse primers, respectively 5′-[…]-3′ and 5′-[…]-3′. An initial activation step of 10 min at 45 °C and 10 min at 95 °C was used, followed by the amplification step for 40 cycles (15 s at 95 °C, 15 s 50 °C and 15 s at 60 °C). At last, the melting curves were generated with an increment of 0.3 °C (15 s at 95 °C 1 min at 45 °C and 15 s at 95 °C). The PCR was run on the Step One Plus real-time PCR system (Applied Biosystems, California, USA). An additional qPCR was performed with the mouse housekeeping gene Eef2 to confirm successful RNA extraction.
Mice were allocated to groups of three and were infected by IP injection of 10^4T. brucei Squib 427 trypomastigotes. […] Suramin was included as a reference for T. brucei and injected IP s.i.d. for 5 days at 10 mg/kg. A PEG400 vehicle control group was also included. […] The first treatment was given 30 min prior to the artificial infection. Drug efficacy was evaluated by microscopic determination of the parasitemia in a blood drop collected from the tail vein at several time points until 63 days postinfection (dpi). […] An SL-RNA qPCR assay was performed in all surviving animals to confirm parasitological cure. For the SL-RNA qPCR, peripheral blood was subjected to erythrocyte lysis before extracting RNA with the QIAamp RNA Blood Mini kit (Qiagen). […] Small pieces of fat, brain, and spleen tissues were excised and immediately transferred to RNA later (Qiagen) and incubated overnight at 4 °C. RNA extraction was performed as instructed in the RNeasy Mini Plus Kit manual (Qiagen). […]

[2] = mouse, microsomes

In the case of `CC(C)(C)c1n[nH]c2c(=O)[nH]c(-c3ccc(F)cc3)nc12` [31c, 3-(tert-Butyl)-5-(4-fluorophenyl)-1,6-dihydro-7H-pyrazolo[4,3-d]pyrimidin-7-one], the IC50 (Leishmania infantum) is reported as over 63.1 µM, the IC50 [1] is reported as over 63.1 µM and the survival (T. b. brucei; 25 mg/kg b.i.d. PO for 5 days, one accidental death in this group) is reported as “survived throughout the 60 days postinfection follow-up period without relapse”. The survival (T. b. brucei; 50 mg/kg b.i.d. PO for 5 days) was “survived throughout the 60 days postinfection follow-up period without relapse”, the “trypanosome Spliced Leader (SL) RNA by qPCR” value (T. b. brucei; blood, spleen, fat and brain tissue of surviving animals) was “difficulty to detect trypanosome Spliced Leader (SL) RNA” and the “Phase-I metabolic stability (in words)” value [2] was “improved metabolic stability compared with 2”. For the same compound, the parent compound remaining ([2]; 1 h) was “at least 69%”.
